Tested on: mouse spleen cells
Experiment: Suppression of mitogen (ConA) reaction
Type: cell-based, C57BL/6 mouse
Settings: 48 hours, 3 cases, read-out: Suppression Rate of Mitogen Reaction; for inhibition at 1 µg/mL: 1 μg/ml; for inhibition at 10 µg/mL: 10 μg/ml; for inhibition at 50 µg/mL: 50 μg/ml
Description: If mouse spleen cells are cultured in vitro in the presence of concanavalin A (hereinafter referred to as "ConA" for short), the cells are divided and proliferated (mitogen reaction). In this system, the immunosuppressive agent of the present invention or cyclosporin A as a comparative example was added to the culture medium and the effects to the mitogen reaction were examined.
More particularly, C57BL/6 mouse was sacrificed and the spleen was removed. The spleen cells were suspended in RPMI 1640 culture medium containing 10% fetal calf serum (hereinafter referred to as "RPMI 1640" for short) so as to prepare a spleen cell suspension (5×10^6 cells/ml). In the wells of a flat-bottomed 96-well microplate, 100 μl of the suspension was placed and then 50 μl of RPMI 1640 containing ConA (4 μg/ml) as well as 50 μl of RPMI 1640 containing the test compound in the concentration shown in Table 2 were added. The cells were cultured for 48 hours (37° C. 5%CO2) As a control, 50 μl of RPMI 1640 was added. Eight hours before the termination of the culture, 2 μ Ci of [^3 H] thymidine was […], added. After termination of the culture, the cells were collected on a filter paper by using a cell harvester. After drying the filter paper, the filter paper was placed in a vial containing toluene-based scintillator and the radioactivity was measured by a liquid scintillation counter.
The suppression rate of mitogen reaction was calculated according to the following equation: [formula]

SMILES | inhibition at 1 µg/mL [%] | inhibition at 10 µg/mL [%] | inhibition at 50 µg/mL [%]
CN1CC[C@]23c4c5ccc(O)c4O[C@H]2c2[nH]c4ccccc4c2C[C@H]3[C@H]1C5 [Me H H NH H H] | 0 | 12 | 52
C=CCN1CC[C@]23c4c5ccc(OC(C)=O)c4O[C@H]2c2[nH]c4ccccc4c2C[C@@]3(OC(C)=O)[C@H]1C5 [allyl OAc Ac NH H H] | 2 | 40 | 100
C=CCN1CC[C@]23c4c5ccc(O)c4O[C@H]2c2[nH]c4ccc(C)cc4c2C[C@@]3(O)[C@H]1C5 [allyl OH H NH 5'-Me H, 5'-methylnaloxindole] | 22 | 45 | 100
C=CCN1CC[C@]23c4c5ccc(O)c4O[C@H]2c2[nH]c4c(Cl)cccc4c2C[C@@]3(O)[C@H]1C5 [allyl OH H NH 7'-Cl H] | 17 | 50 | 100
C=CCN1CC[C@]23c4c5ccc(O)c4O[C@H]2c2c(c4ccccc4n2C)C[C@@]3(O)[C@H]1C5 [allyl OH H NMe H H] | 13 | 50 | 100
C=CCN1CC[C@]23c4c5ccc(O)c4O[C@H]2c2oc4ccccc4c2C[C@@]3(O)[C@H]1C5 [allyl OH H O H H] | 6 | 45 | 100
C=CCN1CC[C@]23c4c5ccc(OC)c4O[C@H]2c2[nH]c4ccccc4c2C[C@@]3(O)[C@H]1C5 [allyl OH Me NH H H] | 17 | 32 | 100
CC(=O)Oc1ccc2c3c1O[C@H]1c4[nH]c5ccccc5c4C[C@@]4(OC(C)=O)[C@@H](C2)N(CC2CC2)CC[C@]314 [cyclopropylmethyl OAc Ac NH H H] | 4 | 55 | 100
CC(=O)O[C@@]12Cc3c([nH]c4ccccc34)[C@@H]3Oc4c(O)ccc5c4[C@@]31CCN(CC1CC1)[C@@H]2C5 [cyclopropylmethyl OAc H NH H H] | 2 | 70 | 100
Oc1ccc2c3c1O[C@H]1c4nc5ccccc5cc4C[C@@]4(O)[C@@H](C2)N(CC2CC2)CC[C@]314 [cyclopropylmethyl OH H CH H H] | 15 | 43 | 75
Oc1ccc2c3c1O[C@H]1c4nc5ccccc5nc4C[C@@]4(O)[C@@H](C2)N(CC2CC2)CC[C@]314 [cyclopropylmethyl OH H N H H] | 10 | 34 | 55
Oc1ccc2c3c1O[C@H]1c4[nH]c5ccc6ccccc6c5c4C[C@@]4(O)[C@@H](C2)N(CC2CC2)CC[C@]314 [cyclopropylmethyl OH H NH 4',5'-benzo] | 2 | 30 | 88
Oc1ccc2c3c1O[C@H]1c4[nH]c5ccc(Br)cc5c4C[C@@]4(O)[C@@H](C2)N(CC2CC2)CC[C@]314 [cyclopropylmethyl OH H NH 5'-Br H] | 7 | 40 | 100
Oc1ccc2c3c1O[C@H]1c4[nH]c5ccc(Cl)cc5c4C[C@@]4(O)[C@@H](C2)N(CC2CC2)CC[C@]314 [cyclopropylmethyl OH H NH 5'-Cl H] | 12 | 37 | 100
Cc1ccc2[nH]c3c(c2c1)C[C@@]1(O)[C@H]2Cc4ccc(O)c5c4[C@@]1(CCN2CC1CC1)[C@H]3O5 [cyclopropylmethyl OH H NH 5'-Me H] | 8 | 34 | 100
Cc1ccc2c3c([nH]c2c1)[C@@H]1Oc2c(O)ccc4c2[C@@]12CCN(CC1CC1)[C@H](C4)[C@]2(O)C3 [cyclopropylmethyl OH H NH 6'-Me H] | 0 | 28 | 100
Oc1ccc2c3c1O[C@H]1c4[nH]c5c(Cl)cccc5c4C[C@@]4(O)[C@@H](C2)N(CC2CC2)CC[C@]314 [cyclopropylmethyl OH H NH 7'-Cl H] | 15 | 75 | 100
Oc1ccc2c3c1O[C@H]1c4[nH]c5c(F)cccc5c4C[C@@]4(O)[C@@H](C2)N(CC2CC2)CC[C@]314 [cyclopropylmethyl OH H NH 7'-F H] | 15 | 61 | 100
O=[N+]([O-])c1cccc2c3c([nH]c12)[C@@H]1Oc2c(O)ccc4c2[C@@]12CCN(CC1CC1)[C@H](C4)[C@]2(O)C3 [cyclopropylmethyl OH H NH 7'-NO2 H] | 5 | 55 | 100
Cn1c2c(c3ccccc31)C[C@@]1(O)[C@H]3Cc4ccc(O)c5c4[C@@]1(CCN3CC1CC1)[C@H]2O5 [cyclopropylmethyl OH H NMe H H] | 15 | 69 | 100
COc1ccc2c3c1O[C@H]1c4[nH]c5ccccc5c4C[C@@]4(O)[C@@H](C2)N(CC2CC2)CC[C@]314 [cyclopropylmethyl OH Me NH H H] | 9 | 65 | 100

— US5332818A, “Immunosuppressive agent and process of producing the same” (Toray Industries, Inc., priority 1989, dated 1994)
